Measurements reported in publication PMC9119314 (Frontiers in Pharmacology, 2022).
Entries after “also recorded” stand apart in the source; their conditions may differ. Like-named read-outs stand apart in the source and are kept apart here.

Columns and labels:
[1] = system: P. falciparum (NF54-Mal8p1.16-GFP-Luc) late-stage gametocytes; test: microbe, parasite or virus in culture; assay type: cell-based, Plasmodium falciparum; conditions: Plasmodium falciparum; for inhibition at 5 µM: NF54, read-out: Inhibition of late-stage gametocytes
Description: Gametocytes were produced as per [Reader et al. (2015]; [2021)] from P. falciparum NF54-Mal8p1.16-GFP-Luc ([Adjalley et al., 2011]), and each batch was validated for viability and functionality before use. […] Drug assays were set up on day 10 (representing late gametocytes, >90% stage IV/V gametocytes) using a 2–3% gametocytemia, 1.5% hematocrit culture. The drug pressure was for 48 h under stationary, hypoxic conditions (90% N2, 5% O2, and 5% CO2) at 37°C. Luciferase activity was determined in 30 μL parasite lysates by adding 30 μL luciferin substrate (Promega Luciferase Assay System) at room temperature and detection of resultant bioluminescence at an integration constant of 10 s with the GloMax®-Multi + Detection System with Instinct® Software. Methylene blue (5 μM) and an internal control (MMV390048, 5 μM) were routinely included as controls.

P. berghei sporozoites = test: P. berghei liver-stage assay (sporozoites in Hep G2-A16-CD81 cells, luciferase); assay type: cell-based, Plasmodium berghei; conditions: Plasmodium berghei, HepG2-A16-CD81, 48 h, read-out: Activity against the P. berghei liver stage, IC50
Description: (§1) Briefly, 3000 Hep G2-A16-CD81 cells/well were seeded in 1536-well plates (Greiner Bio). 50 nL of the test and control compound diluted in DMSO was added and incubated for 24 h. […] The plates were centrifuged for 5 min at 330 × g and incubated at 37°C. Forty-eight hours post infection, 2 μL of luciferin reagent (Promega BrightGlo) was added to each well, and the luciferase activity was detected using a Perkin Elmer Envision plate reader. […] To counter-screen for cellular toxicity, Hep G2-A16-CD81 cells were seeded as above for the sporozoite liver-stage assay but in the absence of sporozoites. Toxicity measurements were performed by adding Promega CellTiterGlo® (2 μL), followed by luminescence measurements. Curve fitting was done as described above using puromycin (25 μM) as a positive control and DMSO as negative control wells.

A2780/WT cells = test: Chemosensitivity MTT assay, A2780 wild type; assay type: cell-based, human; conditions: ± SE, read-out: Activity against A2780/WT cells, IC50
Description: (§2) The chemosensitivity of compounds 3–6 was assessed in the wild-type immortalized human ovarian adenocarcinoma cell line A2780 and its daughter cell lines, which are resistant to the standard cancer chemotherapeutics doxorubicin (A2780/ADR) and cisplatin (A2780/CIS, all cell lines from ECACC, Salisbury, United Kingdom). A modified MTT assay was used ([Shnyder et al., 2008]). Cells (2 × 10^4/ml) were inoculated into each well of a 96-well plate and incubated for 24 h at 37°C in a humidified atmosphere containing 5% CO2. Compounds were then added at a range of concentrations to each well, and the plates were then incubated for a further 96 h. After 96 h, the culture medium was removed and 200 μL of 0.5 mg ml^–1 MTT solution (Sigma) in the complete medium was added to each well. Following a further 4 h incubation, the solution was removed from each well and 150 μL of DMSO was added to solubilize the formazan crystals resulting from MTT conversion. The absorbance values for the resulting solutions were read at 540 nm on an Azure 96-well microplate reader (Azure Biosynstems Inc.), and the cell survival was calculated as the absorbance of treated cells divided by the control.

A2780/cis cells = test: Chemosensitivity MTT assay, cisplatin-resistant A2780/CIS; assay type: cell-based, human; conditions: 96 h, ± SE, read-out: Activity against A2780/cis cells, IC50
Description: as §2

P. falciparum K1 [2] = test: In vitro antiplasmodial activity, P. falciparum K1 (lactate dehydrogenase assay); assay type: cell-based, Plasmodium falciparum; conditions: Plasmodium falciparum, read-out: Activity against P. falciparum K1, IC50
Description: P. falciparum (K1 clone) was maintained in human erythrocytes prepared from the donated blood samples (blood groups unknown, Ethical Tissue, University of Bradford), suspended in the RPMI 1640 medium as previously described ([Wright et al., 2001]), except that serum was replaced with Albumax II, [5% (^w/v)]. […] Twofold serial dilutions were made in 96-well microtiter plates in duplicate, and infected erythrocytes were added to give a final volume of 100 µL with 2.5% hematocrit and 1% parasitemia. Chloroquine diphosphate was used as a positive control, and uninfected and infected erythrocytes without compounds were included in each test. The plates were placed into a modular incubator; gassed with 93% nitrogen, 3% oxygen, and 4% carbon dioxide; and incubated at 37°C for 48 h. The parasite growth was assessed by measuring lactate dehydrogenase activity as described by [Makler et al. (1993)]. The reagent used contained the following in each mL: acetylpyridine adenine dinucleotide (APAD), 0.74 mg; lithium lactate, 19.2 mg; diaphorase, 0.1 mg; Triton X-100, 2 μL; nitroblue tetrazolium, 1 mg; and phenazine ethosulphate, 0.5 mg. Fifty microliter of this reagent was added to each well and mixed; plates were incubated for 15 min at 37°C. The optical densities were read at 550 nm using an Azure 96-well microplate reader (Azure Biosystems Inc.), and % inhibition of growth was calculated by comparison with the control values. IC50 values were determined using linear regression analysis (Microsoft Excel). A minimum of three separate determinations was carried out for each compound.

P. falciparum 3D7 = test: In vitro antiplasmodial activity, P. falciparum 3D7 (SYBR Green I); assay type: cell-based; conditions: Plasmodium falciparum, read-out: Activity against P. falciparum 3D7, IC50
Description: (§3) P. falciparum (3D7 clone) and P. knowlesi (A1-H.1 clone) were maintained in culture in RPMI 1640 supplemented with 25 mM HEPES, 25 mM NaHCO3, 10 mM D-glucose, 2 mM L-glutamine, 50 mg/L hypoxanthine, 25 mg/L gentamicin sulfate, 5 g/L Albumax II, and 10% (v/v) equine serum (Thermo Fisher Scientific, 26-050-088). The P. falciparum (3D7) and P. knowlesi (A1-H.1) parasites were grown in human A^+ red blood cells (National Health Blood and Transplant, United Kingdom). The parasites were incubated in sealed flasks at 37°C under a culture gas mixture of 96% N2, 3% CO2, and 1% O2. ([van Schalkwyk et al., 2019]). The compounds were initially dissolved in DMSO prior to diluting in RPMI. All experiments were initiated using unsynchronized parasites with both the parasitemia and hematocrit set to 1%. Drug susceptibility assays were set up in 96-well, flat-bottom microplates in a final volume of 200 μL, as described previously ([van Schalkwyk et al., 2017]). The controls were included for the background fluorescence (0% viability; parasites exposed to a supralethal 10 μM chloroquine concentration) and 100% growth (parasites in drug-free wells). The plates were incubated for one complete life cycle (27 h for P. knowlesi or 48 h for P. falciparum in vitro) at 37°C in a modular incubation chamber (Billups-Rothenburg Inc.) under the culture gas. Upon termination of the assay, the plates were stored at −20°C overnight. The SYBR Green I fluorescent method was used to measure parasite survival ([Bennett et al., 2004]; [Smilkstein et al., 2004]). After the microplates were thawed, 100 μL from each well was transferred into a duplicate plate. To this was added 100 μL of SYBR green solution [SYBR Green I (Thermo Fisher Scientific, S7563), diluted 1:5000 in a lysis buffer made of 20 mM Tris, 5 mM EDTA, 0.008% (w/v) saponin, 0.08% (v/v) Triton X-100, pH 7.5]. The plates were stored in the dark for 1 h before fluorescence was read at a 490 nm excitation wavelength and a 520 nm emission wavelength on a Spectramax M3 microplate reader (Molecular Devices) ([van Schalkwyk et al., 2017]). The background fluorescence (wells with parasites at 0% viability) was subtracted from all drug assay wells, and the parasite proliferation was determined as a percentage of the fluorescence in the drug-free control wells.

P. knowlesi A1-H.1 = test: In vitro antiplasmodial activity, P. knowlesi A1-H.1 (SYBR Green I); assay type: cell-based, Plasmodium knowlesi; conditions: Plasmodium knowlesi, 27 h, read-out: Activity against P. knowlesi A1-H.1, IC50, 27 h, ± SD
Description: as §3

[3] = system: T. brucei bloodstream forms (strain 427, derivative 221); test: In vitro activity against T. brucei bloodstream forms (resazurin); assay type: cell-based, Trypanosoma brucei; conditions: Trypanosoma brucei, bloodstream forms, hydrochloride salts except 6 (citrate), ± SE
Description: Bloodstream form T. brucei (strain 427, derivative 221) was maintained in modified Iscove’s medium, as described previously ([Taylor et al., 2013]). […] The parasites were diluted to 1 × 10^4 ml^−1, the compound was added at a range of concentrations, and the plates were incubated at 37°C in 5% CO2 for 48 h. Resazurin was then added to each well, and the plates were incubated for a further 16 h. Fluorescence intensities were determined using a BMG FLUOstar Omega plate reader (excitation 545 nm, emission 590 nm), and data were analyzed using Graph Pad Prism 9.0 software. […]

A2780/ADR cells = test: Chemosensitivity MTT assay, doxorubicin-resistant A2780/ADR; assay type: cell-based; conditions: Homo sapiens, 96 h, ± SE, read-out: Activity against A2780/ADR cells, IC50
Description: as §2, with “A” for “The chemosensitivity of compounds 3–6 was assessed in the wild-type immortalized human ovarian adenocarcinoma cell line A2780 and its daughter cell lines, which are resistant to the standard cancer chemotherapeutics doxorubicin (A2780/ADR) and cisplatin (A2780/CIS, all cell lines from ECACC, Salisbury, United Kingdom). A”

Hep G2-A16-CD81 cells = test: Hep G2 cellular toxicity counter-screen (CellTiterGlo); assay type: cell-based; conditions: HepG2-A16-CD81, no sporozoites, ± SE, read-out: Activity against Hep G cells
Description: as §1

[4] = Acute oral toxicity in mice; assay type: in vivo; conditions: oral, 20, 50 and 100 mg/kg/dose × 3 consecutive days; up to 100 mg/kg/dose; 2 as hydrochloride, 4–6 as citrate
Description: Female NIH Swiss mice aged 6–12 weeks were used (Envigo, Blackthorn, United Kingdom). The mice were kept in cages housed in isolation cabinets in an air-conditioned room with regular alternating cycles of light and darkness. They received Teklad 2018 diet (Envigo, Blackthorn, United Kingdom) and water ad libitum. All animal procedures were carried out under a project license issued by the UK Home Office, and UK National Cancer Research Institute Guidelines for the Welfare of Animals were followed throughout. […] A group of two untreated control animals was included at each dose level. Following treatment, the body weight was measured on a regular basis, and behavior and general appearance were monitored visually to assess for deleterious effects (e.g., dehydration, impaired mobility, hunched posture, a low body temperature, ulceration, and significant bodyweight loss), with any effects during the study recorded. […] If no deleterious effects were seen after at least 18 days of study, then the animals were sacrificed, and the dose was considered non-toxic.

P. falciparum K1 [5] = system: P. falciparum K1; design: method as in Onyeibor et al., 2005; conditions: strain K1; ref Onyeibor et al., 2005; read-out: Activity against P. falciparum K1, IC50; cited from earlier work
P. berghei = conditions: I.P., 25 mg/kg; ref Onyeibor et al., 2005; cited from earlier work

## CN(C)c1ccc2nc3ccc(=[N+](C)C)cc-3sc2c1 [Methylene blue, reference compound]
[1]
  inhibition at 5 µM: 96%

## O=C1C(O)=C([C@H]2CC[C@H](c3ccc(Cl)cc3)CC2)C(=O)c2ccccc21 [Atovaquone, reference compound]
P. berghei sporozoites
  IC50: 0.383 nM

## N.N.[Cl][Pt][Cl] [Cisplatin, reference compound]
A2780/WT cells; 96 h
  IC50: 3470 ± 2200 nM
A2780/cis cells
  IC50: 24700 ± 2750 nM

## CCN(CC)CCCC(C)Nc1ccnc2cc(Cl)ccc12 (stereo not drawn) [Chloroquine diphosphate, reference compound]
P. falciparum K1 [2]; K1, 48 h
  IC50: 350 ± 140 nM
P. falciparum 3D7; 3D7, 48 h
  IC50: 12 ± 3 nM
P. knowlesi A1-H.1
  IC50: 20 ± 3 nM

## C[n+]1c2ccccc2cc2[n-]c3ccc(Br)cc3c21 [Compound 3, 7-Bromocryptolepine]
P. falciparum K1 [2]; chloroquine-resistant strain K1, 48 h, mean ± SE
  IC50: 150 ± 30 nM
[3]; 64 h, 48 h + 16 h resazurin
  IC50: 199 ± 15 nM
[3]
  IC90: 256 ± 6 nM
A2780/WT cells; Homo sapiens, A2780, 96 h
  IC50: 70 ± 10 nM
A2780/ADR cells
  IC50: 170 ± 40 nM
A2780/cis cells; Homo sapiens, A2780cis
  IC50: 230 ± 20 nM

## Cn1c2c3cc(Br)ccc3nc-2cc2cc(Br)ccc21 [Compound 2, 2,7-dibromocryptolepine]
P. falciparum 3D7; chloroquine-sensitive strain 3D7, 48 h
  IC50: 30 ± 6 nM
P. knowlesi A1-H.1
  IC50: 30 ± 4.5 nM
[1]; NF54, 48 h, read-out: Activity against late-stage gametocytes IC50
  IC50: 2000 ± 170 nM
Hep G2-A16-CD81 cells
  IC50: 4940 ± 1810 nM
[4]
  Acute oral toxicity in mice: No toxicity was seen; also recorded: not toxic
P. falciparum K1 [5]
  IC50: 49 ± 20 nM
P. berghei
  Suppression of parasitemia in mice: 90%
  Toxicity to mice in the antimalarial test: without apparent toxicity

## CS(=O)(=O)c1ccc(-c2cnc(N)c(-c3ccc(C(F)(F)F)nc3)c2)cc1 [MMV 390048, reference compound]
[1]
  inhibition at 5 µM: 96.2%

## COc1cccc2c1C(=O)c1c(O)c3c(c(O)c1C2=O)C[C@@](O)(C(=O)CO)C[C@@H]3O[C@H]1C[C@H](N)[C@H](O)[C@H](C)O1 [Doxorubicin, reference compound]
A2780/WT cells; Homo sapiens, A2780, 96 h
  IC50: 70 ± 60 nM
A2780/ADR cells
  IC50: 3030 ± 350 nM
